Ki and EC50 data for six molecules are collected here from patent US12252524B2, “GIP/GLP1 co-agonist compounds” (Eli Lilly and Company, priority 2018, dated 2025).

Molecules are shown by their SMILES. Numbered stars: 1 amine (or outer) side, 2 acyl side, 3 side chain; on linkers, the order of the positions; unused ones are H or OH. Square brackets hold non-standard residues; d marks the D form. Side chains are listed from the residue outwards. Peptide text beside a SMILES is read from it. * marks the point of attachment. C20 diacid = O=C(O)CCCCCCCCCCCCCCCCCCC(=O)*; γGlu = O=C(O)[C@H](CCC(=O)[*:2])N[*:1]; αMeL = CC(C)C[C@](C)(N)C(=O)O; AEEA = NCCOCCOCC(=O)O; Aib = CC(C)(N)C(=O)O

One assay addresses T1, human Gcg receptor (Homo sapiens, UniProt P47871).
T1 construct: expressed in transfected cells; crude membranes
In words: [125I]-Glucagon binding (SPA), human Gcg receptor. The conditions noted are these: read-out: hGLcgR Ki, nM (SEM, n). The essentials:
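Scintillation counts are taken after membranes and WGA beads incubate and settle for 12 hours at room temperature. Buffer is 25 mM HEPES, pH 7.4, with CaCl2, MgCl2, bacitracin and Tween-20. Ki values, from four-parameter IC50 fits, are geometric means over independent days.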

In assay [1] the target is human GLP-1 receptor (GLP-1R) (Homo sapiens, UniProt P43220). The experiment in a line: cAMP pharmacological functional assay in presence of casein, hGLP-1R. Type of assay: cell-based. The conditions noted are these: HEK293 cells expressing hGLP-1R, 0.1% Casein, geometric mean; read-out: hGLP1R cAMP Rel EC50 nM (SEM, n).
The target in assay [2] is T2, gastric inhibitory peptide receptor (GIPR) (Homo sapiens, UniProt P48546).
T2 sequence (P48546 22-466): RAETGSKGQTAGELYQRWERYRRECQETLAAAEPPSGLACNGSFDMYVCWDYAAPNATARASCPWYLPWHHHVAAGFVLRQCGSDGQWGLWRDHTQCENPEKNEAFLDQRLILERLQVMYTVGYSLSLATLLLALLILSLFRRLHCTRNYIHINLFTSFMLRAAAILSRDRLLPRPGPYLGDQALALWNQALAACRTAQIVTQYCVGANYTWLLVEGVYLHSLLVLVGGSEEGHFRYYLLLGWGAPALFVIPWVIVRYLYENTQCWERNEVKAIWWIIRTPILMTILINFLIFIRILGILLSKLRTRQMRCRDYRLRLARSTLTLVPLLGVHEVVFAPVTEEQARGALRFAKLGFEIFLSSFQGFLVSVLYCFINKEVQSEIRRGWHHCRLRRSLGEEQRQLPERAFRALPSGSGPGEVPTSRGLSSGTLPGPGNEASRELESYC
The experiment in a line: cAMP pharmacological functional assay in presence of casein, hGIPR. Type of assay: cell-based. The conditions noted are these: HEK293 cells expressing hGIPR, 0.1% Casein, geometric mean; read-out: hGIPR cAMP Rel EC50 nM (SEM, n).

The target of the next assay is T3, human GIP receptor (Homo sapiens, UniProt P48546).
T3 construct: expressed in transfected cells; crude membranes
T3 sequence (P48546 22-466): T2 sequence (P48546 22-466)
In words: [125I]-GIP binding (SPA), human GIP receptor. The conditions noted are these: read-out: hGIPR Ki, nM (SEM, n).

The next assay deals with human GLP-1R (Homo sapiens, UniProt P43220). The experiment in a line: [125I]-GLP-1 binding (SPA), human GLP-1 receptor. Also on record: expressed in transfected cells; crude membranes. The settings on record: read-out: hGLP1R Ki, (nM) (SEM, n). The essentials:
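Crude-membrane binding assay; one membrane prep included 1 mM MgCl2 and 25 units/ml DNAse I during lysis. Assay buffer at pH 7.4 contains 0.1% (w/v) bacitracin and 0.003% (w/v) TWEEN-20. Ki is reported as geometric mean.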

T1 sequence (P47871 26-477): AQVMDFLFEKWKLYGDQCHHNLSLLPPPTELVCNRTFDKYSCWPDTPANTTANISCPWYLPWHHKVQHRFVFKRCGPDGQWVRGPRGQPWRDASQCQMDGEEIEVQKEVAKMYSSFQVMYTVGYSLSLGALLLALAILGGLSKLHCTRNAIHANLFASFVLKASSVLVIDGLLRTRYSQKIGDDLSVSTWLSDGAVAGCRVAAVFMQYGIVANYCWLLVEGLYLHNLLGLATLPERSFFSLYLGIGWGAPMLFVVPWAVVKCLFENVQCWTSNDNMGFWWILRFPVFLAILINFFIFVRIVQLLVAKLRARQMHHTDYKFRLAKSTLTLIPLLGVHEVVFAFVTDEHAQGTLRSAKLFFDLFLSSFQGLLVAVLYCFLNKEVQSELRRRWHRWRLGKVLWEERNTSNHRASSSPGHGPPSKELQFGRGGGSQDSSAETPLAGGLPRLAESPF
Chain of human GLP-1R (P43220 24-463): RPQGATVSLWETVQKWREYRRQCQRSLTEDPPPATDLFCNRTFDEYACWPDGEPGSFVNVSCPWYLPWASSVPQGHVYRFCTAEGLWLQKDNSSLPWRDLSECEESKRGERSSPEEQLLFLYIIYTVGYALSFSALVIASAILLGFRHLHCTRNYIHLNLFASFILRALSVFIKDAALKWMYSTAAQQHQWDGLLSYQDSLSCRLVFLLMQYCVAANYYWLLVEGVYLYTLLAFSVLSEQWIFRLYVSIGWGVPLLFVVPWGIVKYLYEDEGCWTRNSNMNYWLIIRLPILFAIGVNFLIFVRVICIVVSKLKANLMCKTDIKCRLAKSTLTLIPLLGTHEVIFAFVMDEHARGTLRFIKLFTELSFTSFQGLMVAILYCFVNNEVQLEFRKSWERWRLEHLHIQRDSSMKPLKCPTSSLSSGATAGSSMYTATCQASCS
Chain of human GLP-1 receptor (GLP-1R) (P43220 24-463): as above

Turning to `CC[C@H](C)[C@H](NC(=O)[C@H](CC(C)C)NC(=O)[C@H](Cc1ccc(O)cc1)NC(=O)[C@H](CCC(=O)O)NC(=O)[C@@H](NC(=O)[C@H](Cc1ccccc1)NC(=O)[C@H](C)NC(=O)C(C)(C)NC(=O)[C@H](CCC(N)=O)NC(=O)[C@H](C)NC(=O)[C@H](CCCCNC(=O)COCCOCCNC(=O)COCCOCCNC(=O)CC[C@H](NC(=O)CCCCCCCCCCCCCCCCCCC(=O)O)C(=O)O)NC(=O)C(C)(C)NC(=O)[C@H](CC(=O)O)NC(=O)[C@H](CC(C)C)NC(=O)[C@](C)(CC(C)C)NC(=O)[C@@H](NC(=O)[C@H](CO)NC(=O)[C@H](Cc1ccc(O)cc1)NC(=O)[C@H](CC(=O)O)NC(=O)[C@H](CO)NC(=O)[C@@H](NC(=O)[C@H](Cc1ccccc1)NC(=O)[C@@H](NC(=O)CNC(=O)[C@H](CCC(=O)O)NC(=O)C(C)(C)NC(=O)[C@@H](N)Cc1ccc(O)cc1)[C@@H](C)O)[C@@H](C)O)[C@@H](C)CC)[C@@H](C)CC)C(=O)N[C@@H](CCC(=O)O)C(=O)NCC(=O)NCC(=O)N1CCC[C@H]1C(=O)N[C@@H](CO)C(=O)N[C@@H](CO)C(=O)NCC(=O)N[C@@H](C)C(=O)N1CCC[C@H]1C(=O)N1CCC[C@H]1C(=O)N1CCC[C@H]1C(=O)N[C@@H](CO)C(N)=O` [Example 60] (H-Y[Aib]EGTFTSDYSI[αMeL]LD[Aib]K([AEEA-AEEA-γGlu-C20 diacid])AQ[Aib]AFIEYLIEGGPSSGAPPPS-NH2), the Ki at human Gcg receptor turned out to be 237 nM; at human GIP receptor, 0.0655 nM; on human GLP-1R, 9.55 nM. The EC50 in assay [1] amounted to 0.287 nM; in assay [2], 0.135 nM.
Take `CC[C@H](C)[C@H](NC(=O)[C@H](Cc1ccccc1)NC(=O)[C@H](C)NC(=O)C(C)(C)NC(=O)[C@H](CCC(N)=O)NC(=O)[C@H](C)NC(=O)[C@H](CCCCNC(=O)COCCOCCNC(=O)COCCOCCNC(=O)CC[C@H](NC(=O)CCCCCCCCCCCCCCCCCCC(=O)O)C(=O)O)NC(=O)[C@H](CO)NC(=O)[C@H](CC(=O)O)NC(=O)[C@H](CC(C)C)NC(=O)[C@](C)(CC(C)C)NC(=O)[C@@H](NC(=O)[C@H](CO)NC(=O)[C@H](Cc1ccc(O)cc1)NC(=O)[C@H](CC(=O)O)NC(=O)[C@H](CO)NC(=O)[C@@H](NC(=O)[C@H](Cc1ccccc1)NC(=O)[C@@H](NC(=O)CNC(=O)[C@H](CCC(=O)O)NC(=O)C(C)(C)NC(=O)[C@@H](N)Cc1ccc(O)cc1)[C@@H](C)O)[C@@H](C)O)[C@@H](C)CC)C(=O)N[C@@H](CCC(=O)O)C(=O)N[C@@H](Cc1ccc(O)cc1)C(=O)N[C@@H](CC(C)C)C(=O)N[C@@H](CC(C)C)C(=O)N[C@@H](CCC(=O)O)C(=O)NCC(=O)NCC(=O)N1CCC[C@H]1C(=O)N[C@@H](CO)C(=O)N[C@@H](CO)C(=O)NCC(=O)N[C@@H](C)C(=O)N1CCC[C@H]1C(=O)N1CCC[C@H]1C(=O)N1CCC[C@H]1C(=O)N[C@@H](CO)C(N)=O` [Example 61] (H-Y[Aib]EGTFTSDYSI[αMeL]LDSK([AEEA-AEEA-γGlu-C20 diacid])AQ[Aib]AFIEYLLEGGPSSGAPPPS-NH2): the values for the inhibitory constant (Ki) on human Gcg receptor, on human GIP receptor and on human GLP-1R were 110 nM, 0.102 nM and 11.1 nM, respectively. In addition, the EC50 in assay [1] is 0.371 nM; in assay [2] it was 0.0739 nM.
Taken in the same sequence, the figures for `CC[C@H](C)[C@H](NC(=O)[C@H](CC(C)C)NC(=O)[C@H](Cc1ccc(O)cc1)NC(=O)[C@H](CCC(=O)O)NC(=O)[C@@H](NC(=O)[C@H](Cc1ccccc1)NC(=O)[C@H](C)NC(=O)C(C)(C)NC(=O)[C@H](CCC(N)=O)NC(=O)[C@H](C)NC(=O)[C@H](CCCCNC(=O)COCCOCCNC(=O)COCCOCCNC(=O)CC[C@H](NC(=O)CCCCCCCCCCCCCCCCCCC(=O)O)C(=O)O)NC(=O)[C@H](CCCCN)NC(=O)[C@H](CC(=O)O)NC(=O)[C@H](CC(C)C)NC(=O)[C@](C)(CC(C)C)NC(=O)[C@@H](NC(=O)[C@H](CO)NC(=O)[C@H](Cc1ccc(O)cc1)NC(=O)[C@H](CC(=O)O)NC(=O)[C@H](CO)NC(=O)[C@@H](NC(=O)[C@H](Cc1ccccc1)NC(=O)[C@@H](NC(=O)CNC(=O)[C@H](CCC(=O)O)NC(=O)C(C)(C)NC(=O)[C@@H](N)Cc1ccc(O)cc1)[C@@H](C)O)[C@@H](C)O)[C@@H](C)CC)[C@@H](C)CC)C(=O)N[C@@H](CCC(=O)O)C(=O)NCC(=O)NCC(N)=O` [Example 62] (H-Y[Aib]EGTFTSDYSI[αMeL]LDKK([AEEA-AEEA-γGlu-C20 diacid])AQ[Aib]AFIEYLIEGG-NH2) were 168 nM, 0.0545 nM, 2.03 nM, 0.159 nM and 0.0601 nM.
Taken in the same sequence, the figures for `CC[C@H](C)[C@H](NC(=O)[C@H](CC(C)C)NC(=O)[C@H](Cc1ccc(O)cc1)NC(=O)[C@H](CCC(=O)O)NC(=O)[C@@H](NC(=O)[C@H](Cc1ccccc1)NC(=O)[C@H](C)NC(=O)C(C)(C)NC(=O)[C@H](CCC(N)=O)NC(=O)[C@H](C)NC(=O)[C@H](CCCCNC(=O)COCCOCCNC(=O)COCCOCCNC(=O)CC[C@H](NC(=O)CCCCCCCCCCCCCCCCCCC(=O)O)C(=O)O)NC(=O)[C@H](CCC(=O)O)NC(=O)[C@H](CC(=O)O)NC(=O)[C@H](CC(C)C)NC(=O)[C@](C)(CC(C)C)NC(=O)[C@@H](NC(=O)[C@H](CO)NC(=O)[C@H](Cc1ccc(O)cc1)NC(=O)[C@H](CC(=O)O)NC(=O)[C@H](CO)NC(=O)[C@@H](NC(=O)[C@H](Cc1ccccc1)NC(=O)[C@@H](NC(=O)CNC(=O)[C@H](CCC(=O)O)NC(=O)C(C)(C)NC(=O)[C@@H](N)Cc1ccc(O)cc1)[C@@H](C)O)[C@@H](C)O)[C@@H](C)CC)[C@@H](C)CC)C(=O)N[C@@H](CCC(=O)O)C(=O)NCC(=O)NCC(N)=O` [Example 63] (H-Y[Aib]EGTFTSDYSI[αMeL]LDEK([AEEA-AEEA-γGlu-C20 diacid])AQ[Aib]AFIEYLIEGG-NH2) were 273 nM, 0.141 nM, 7.79 nM, 0.19 nM and 0.0925 nM.
As to `CC[C@H](C)[C@H](NC(=O)[C@H](CC(C)C)NC(=O)[C@H](Cc1ccc(O)cc1)NC(=O)[C@H](CCC(=O)O)NC(=O)[C@@H](NC(=O)[C@H](Cc1ccccc1)NC(=O)[C@H](C)NC(=O)C(C)(C)NC(=O)[C@H](CCC(N)=O)NC(=O)[C@H](C)NC(=O)[C@H](CCCCNC(=O)COCCOCCNC(=O)COCCOCCNC(=O)CC[C@H](NC(=O)CCCCCCCCCCCCCCCCCCC(=O)O)C(=O)O)NC(=O)[C@H](CO)NC(=O)[C@H](CC(=O)O)NC(=O)[C@H](CC(C)C)NC(=O)[C@](C)(CC(C)C)NC(=O)[C@@H](NC(=O)[C@H](CO)NC(=O)[C@H](Cc1ccc(O)cc1)NC(=O)[C@H](CC(=O)O)NC(=O)[C@H](CO)NC(=O)[C@@H](NC(=O)[C@H](Cc1ccccc1)NC(=O)[C@@H](NC(=O)CNC(=O)[C@H](CCC(=O)O)NC(=O)C(C)(C)NC(=O)[C@@H](N)Cc1ccc(O)cc1)[C@@H](C)O)[C@@H](C)O)[C@@H](C)CC)[C@@H](C)CC)C(=O)N[C@@H](CCC(=O)O)C(=O)NCC(=O)NCC(N)=O` [Example 64] (H-Y[Aib]EGTFTSDYSI[αMeL]LDSK([AEEA-AEEA-γGlu-C20 diacid])AQ[Aib]AFIEYLIEGG-NH2), the Ki at human Gcg receptor was determined as 260 nM; at human GIP receptor, 0.0866 nM; on human GLP-1R, 4.86 nM. For the same molecule, the 50% effective concentration (EC50) was found to be 0.172 nM in assay [1] and 0.0916 nM in assay [2].
As for `CC[C@H](C)[C@H](NC(=O)[C@H](CC(C)C)NC(=O)[C@H](Cc1ccc(O)cc1)NC(=O)[C@H](CCC(=O)O)NC(=O)[C@@H](NC(=O)[C@H](Cc1ccccc1)NC(=O)[C@H](C)NC(=O)C(C)(C)NC(=O)[C@H](CCC(N)=O)NC(=O)[C@H](C)NC(=O)[C@H](CCCCNC(=O)COCCOCCNC(=O)COCCOCCNC(=O)CC[C@H](NC(=O)CCCCCCCCCCCCCCCCCCC(=O)O)C(=O)O)NC(=O)[C@@H](NC(=O)[C@H](CC(=O)O)NC(=O)[C@H](CC(C)C)NC(=O)[C@](C)(CC(C)C)NC(=O)[C@@H](NC(=O)[C@H](CO)NC(=O)[C@H](Cc1ccc(O)cc1)NC(=O)[C@H](CC(=O)O)NC(=O)[C@H](CO)NC(=O)[C@@H](NC(=O)[C@H](Cc1ccccc1)NC(=O)[C@@H](NC(=O)CNC(=O)[C@H](CCC(=O)O)NC(=O)C(C)(C)NC(=O)[C@@H](N)Cc1ccc(O)cc1)[C@@H](C)O)[C@@H](C)O)[C@@H](C)CC)[C@@H](C)O)[C@@H](C)CC)C(=O)N[C@@H](CCC(=O)O)C(=O)NCC(=O)NCC(N)=O` [Example 65] (H-Y[Aib]EGTFTSDYSI[αMeL]LDTK([AEEA-AEEA-γGlu-C20 diacid])AQ[Aib]AFIEYLIEGG-NH2; N-terminus assumed), the Ki was found to be 194 nM on human Gcg receptor, 0.0643 nM at human GIP receptor and 4.53 nM at human GLP-1R. Moreover, the concentration for a half-maximal effect (EC50) was determined as 0.289 nM in assay [1] and 0.143 nM in assay [2].

In general, Ki refers to the dissociation constant of the complex between target and ligand, obtained from inhibition or displacement. For orientation: EC50 means the midpoint of the concentration-response curve.
